Here are results for eight molecules from patent US11628186B2, “Method and composition for the reduction of viral replication, duration and spread of the COVID-19 and the flu” (priority 2017, dated 2023).

The assay has as its system patients with chronic Hypoxemia. The assay can be described thus: Various drugs with or without pre-inhaled pyruvate formulas (Table VII). The format is in vivo, human. The arrangement: SaO2 Measurements taken after medication and compared to baseline / SaO2 Measurements taken after taking the medication and compared to baseline: unit not given here. The conditions noted are these: for SaO2 Measurements taken after medication and compared to baseline: Drug in commercial formula taken in prescribed way; for SaO2 measurements taken after taking medication and compared to baseline: Drug in commercial formula with Pre-inhaled sodium pyruvate, calcium & phosphate & magnesium; for SaO2 Measurements taken after taking the medication and compared to baseline: Drug in commercial formula with pre-inhaled sodium pyruvate saline only. The protocol: With the hundreds of patients tested in our various clinical trials, data was gathered as to the type of medications the patients used and the frequency of their use over a six-month period. The patients were asked to rate their medications form 1-10 with 1 being the most irritating with the most side effects and 10 being the best with no irritation and no side effects. In these clinical trials, various drugs were evaluated for irritation, mucus production, and efficacy in humans. The drugs were all evaluated using their current formulations and concentrations against the same formulations with the addition of sodium pyruvate, with the calcium, phosphate and magnesium formula given just prior to the use of their medications. They were instructed to 20 inhale this formula just prior to the use of their medications and to evaluate the effect of their medications on the 1-10 scale.
Patients on the various inhaled medications whether inhaled or taken orally or by IV infusion, were enlisted in the evaluation of the inhaled sodium pyruvate calcium, phosphate and magnesium formula. The patients were tested for their SaO2 levels and those that had SaO2 levels below 92% were asked to enlist in the study. […] After the SaO2 levels were determined prior to and one hour after taking their medications, the patients returned the following day, SaO2 measurements were taken one hour prior to taking their medications. The patients were then handed the hypotonic inhalation formula of sodium pyruvate with calcium, phosphate magnesium formula and instructed to inhale it one hour before taking their medications, SaO2 measurements were then taken one hour after taking their medications.

Setting [1] is: Drugs commercial formula given as instructed in the package.
Where [2] appears, read: Drugs in commercial formula Pre-inhaled sodium pyruvate & calcium & phosphate & magnesium.
Setting [3] is: Drugs in commercial formula with pre-inhaled sodium pyruvate in saline only.

Each structure is given as a SMILES string.

With `N=C(N)c1ccc(OCCCCCOc2ccc(C(=N)N)cc2)cc1` [Pentamidine isethionate], the “SaO2 Measurements taken after medication and compared to baseline” value was −1; the “SaO2 measurements taken after taking medication and compared to baseline” value is “+2”; the “SaO2 Measurements taken after taking the medication and compared to baseline” value is listed as “+1”. Under setting [1], the “Lung functions (rating 1-10)” value stood at 4. The “Lung functions (rating 1-10)” value under setting [2] is 8. Also, the “Lung functions (rating 1-10)” value under setting [3] is listed as 5.

As to `NC(=O)c1ncn([C@@H]2O[C@H](CO)[C@@H](O)[C@H]2O)n1` [Ribavirin], the “SaO2 Measurements taken after medication and compared to baseline” value is −3; the “SaO2 measurements taken after taking medication and compared to baseline” value is listed as “+2”; the “SaO2 Measurements taken after taking the medication and compared to baseline” value is 0. Besides, under setting [1], the “Lung functions (rating 1-10)” value amounted to 5. Besides, the “Lung functions (rating 1-10)” value under setting [2] was found to be 7. In addition, the “Lung functions (rating 1-10)” value under setting [3] stood at 6.

In the case of `CN[C@H](CC(C)C)C(=O)N[C@H]1C(=O)N[C@@H](CC(N)=O)C(=O)N[C@H]2C(=O)N[C@H]3C(=O)N[C@H](C(=O)N[C@H](C(=O)O)c4cc(O)cc(O)c4-c4cc3ccc4O)[C@H](O)c3ccc(c(Cl)c3)Oc3cc2cc(c3O[C@@H]2O[C@H](CO)[C@@H](O)[C@H](O)[C@H]2O[C@H]2C[C@](C)(N)[C@H](O)[C@H](C)O2)Oc2ccc(cc2Cl)[C@H]1O` [Vancomycin], the “SaO2 Measurements taken after medication and compared to baseline” value was −1; the “SaO2 measurements taken after taking medication and compared to baseline” value is reported as “+1”; the “SaO2 Measurements taken after taking the medication and compared to baseline” value worked out at 0. In addition, the “Lung functions (rating 1-10)” value under setting [1] is given as 6. Further, under setting [2], the “Lung functions (rating 1-10)” value was found to be 8. Also, the “Lung functions (rating 1-10)” value under setting [3] came out at 5.

With `C/C(=C\C(=O)OCCCCCCCCC(=O)O)C[C@@H]1OC[C@H](C[C@@H]2O[C@H]2[C@@H](C)[C@H](C)O)[C@@H](O)[C@H]1O` [Mupirocin], the “SaO2 Measurements taken after medication and compared to baseline” value stood at 0; the “SaO2 measurements taken after taking medication and compared to baseline” value is recorded as “+4”; the “SaO2 Measurements taken after taking the medication and compared to baseline” value turned out to be 0. Moreover, the “Lung functions (rating 1-10)” value under setting [1] is on record as 4. For the same molecule, under setting [2], the “Lung functions (rating 1-10)” value is 8. Moreover, under setting [3], the “Lung functions (rating 1-10)” value stood at 6.

In the case of `CC(=O)N[C@H]1[C@H]([C@H](O)[C@H](O)CO)OC(C(=O)O)=C[C@@H]1N=C(N)N` [Zanamivir], the “SaO2 Measurements taken after medication and compared to baseline” value is −2; the “SaO2 measurements taken after taking medication and compared to baseline” value was “+5”; the “SaO2 Measurements taken after taking the medication and compared to baseline” value came out at 0. The “Lung functions (rating 1-10)” value under setting [1] is listed as 4. Further, the “Lung functions (rating 1-10)” value under setting [2] amounted to 7. Also, the “Lung functions (rating 1-10)” value under setting [3] is recorded as 5.

Take `CC1(C)O[C@@H]2C[C@H]3[C@@H]4C[C@H](F)C5=CC(=O)C=C[C@]5(C)[C@H]4[C@@H](O)C[C@]3(C)[C@]2(C(=O)CO)O1` [Flunisolide]: the “SaO2 Measurements taken after medication and compared to baseline” value is on record as −1; the “SaO2 measurements taken after taking medication and compared to baseline” value was “+4”; the “SaO2 Measurements taken after taking the medication and compared to baseline” value is reported as “+1”. Further, under setting [1], the “Lung functions (rating 1-10)” value was determined as 6. Also, the “Lung functions (rating 1-10)” value under setting [2] is reported as 6. Moreover, the “Lung functions (rating 1-10)” value under setting [3] was 6.

For the molecule `Clc1ccccc1C(c1ccccc1)(c1ccccc1)n1ccnc1` [Chlotrimizole], the “SaO2 Measurements taken after medication and compared to baseline” value is given as −2; the “SaO2 measurements taken after taking medication and compared to baseline” value was “+1”; the “SaO2 Measurements taken after taking the medication and compared to baseline” value is “+1”. The “Lung functions (rating 1-10)” value under setting [1] is 4. In addition, the “Lung functions (rating 1-10)” value under setting [2] was determined as 8. Also, under setting [3], the “Lung functions (rating 1-10)” value amounted to 6.

With `CC(C)(C)NCC(O)c1ccc(O)c(CO)c1` (stereo not drawn) [Albuterol], the “SaO2 Measurements taken after medication and compared to baseline” value was 0; the “SaO2 measurements taken after taking medication and compared to baseline” value is recorded as “+4”; the “SaO2 Measurements taken after taking the medication and compared to baseline” value is reported as “+1”. Under setting [1], the “Lung functions (rating 1-10)” value is 8. For the same molecule, the “Lung functions (rating 1-10)” value under setting [2] is given as 8. The “Lung functions (rating 1-10)” value under setting [3] is 8.
